The values that follow come from US10800824B2, “AIMP1 protein fragment and skin-protecting composition containing same as active ingredient” (NEOMICS CO., LTD., priority 2016, dated 2020).

No end group written: not given here.

The test system of one series is Raw 264.7 cells. The series can be described thus: TNF-alpha ELISA assay (TNF-alpha secretion). In kind it is cell-based. Particulars: 10 μM, 6 hours, FIG. 4. As to the method: Raw 264.7 cells (ATCC TIB-71; 3,000 cells/well) were cultured for 12 hours in DMEM medium containing 10% serum in a 96-well plate, and then cultured in serum-free medium for about 3 hours. Then, Neo-Pep polypeptide (SEQ ID NO: 1) and its fragments (SEQ ID NOS: 2 to 4) were added to the DMEM medium with the concentration of 10 μM each, and then cultured for 6 hours.
Then, the medium was collected and centrifuged at 1,000 g for 10 minutes, and secreted TNF-α was detected using a TNF-α ELISA assay (BD Biosciences, USA) according to the manufacturer's instructions.

Series [1] relates to normal epithelium cells (vero). The series can be described thus: Cytotoxicity assay (Cell Counting Kit-8 assay) on normal epithelium cells. As to conditions: 10 μM, 24 hours, CCK-8, FIG. 3. In kind it is cell-based. As to the method: To confirm the proliferation and cytotoxicity of the fibroblasts, the CCK-8 assay (Cell Counting Kit-8 assay) of Dojindo Molecular Technologies (Japan) was performed according to the manufacturer's instructions.
First, human foreskin fibroblast (3,000 cells/well; Promocell) and normal epithelium cells (vero; 3,000 cells/well) were cultured in DMEM medium containing 10% serum in 96-well plates for 12 hours, and then cultured in serum-free medium for about 3 hours. Then, Neo-Pep polypeptide (SEQ ID NO: 1) and fragments thereof (SEQ ID NOS: 2 to 4) were added to the DMEM medium with the concentration of 10 μM each, and then cultured for 24 hours.
Then, 10 μl of CCK-8 solution (Dojindo Molecular Technologies, Japan) was added to each well of the medium, and the absorbance was analyzed at 450 nm using a microplate reader according to the manufacturer's instructions.
Background: Tetrazolium dyes change colour on reduction, which living cells bring about.

For “RLEQKGAEADQIIEY [Polypeptide S1200, RLEQKGAEADQIIEY]”, the “secreted TNF-alpha level versus control group” value in the series on Raw 264.7 cells is “very low and similar to that of control group”. As to “KGAEADQIIEYLKQQ [Polypeptide S1300, KGAEADQIIEYLKQQ]”, the “secreted TNF-alpha level versus control group” value in the series on Raw 264.7 cells is “very low and similar to that of control group”.

As for “IEYLKQQVSLLKEKA [Polypeptide S1400, IEYLKQQVSLLKEKA]”, in series [1], the “epithelium cell viability versus control group” value is listed as “slightly lower”. The “secreted TNF-alpha level versus control group” value in the series with Raw 264.7 cells was “very low and similar to that of control group”. As to “AVLKRLEQKGAEADQIIEYLKQQVSLLKEKAILQATLREEK [Neo-Pep]”, the “secreted TNF-alpha level versus control group” value in the series on Raw 264.7 cells was “very low and similar to that of control group”.
